Laboratory results taken from article PMC12262901, “Natural product-mediated reaction hijacking mechanism validates Plasmodium aspartyl-tRNA synthetase as an antimalarial drug target” (PLOS Pathogens, 2025).
One block for each molecule: values may come before it.

Assays:
[1] = target: T1, truncated PvAspRS (96-631) (Plasmodium vivax, UniProt A5K9Y2); assay: X-ray crystal structure, […] Å; type: binding; settings: active site of catalytic domain, both chains; possible radiation damage at the 2-Cl
T1 construct: gene PVX_081610; residues 96-631, lacks N-terminal extension, pETM-41 vector, expressed in E. coli BL21(DE3), tag removed with TEV protease, homodimer
T1 sequence (A5K9Y2 96-631): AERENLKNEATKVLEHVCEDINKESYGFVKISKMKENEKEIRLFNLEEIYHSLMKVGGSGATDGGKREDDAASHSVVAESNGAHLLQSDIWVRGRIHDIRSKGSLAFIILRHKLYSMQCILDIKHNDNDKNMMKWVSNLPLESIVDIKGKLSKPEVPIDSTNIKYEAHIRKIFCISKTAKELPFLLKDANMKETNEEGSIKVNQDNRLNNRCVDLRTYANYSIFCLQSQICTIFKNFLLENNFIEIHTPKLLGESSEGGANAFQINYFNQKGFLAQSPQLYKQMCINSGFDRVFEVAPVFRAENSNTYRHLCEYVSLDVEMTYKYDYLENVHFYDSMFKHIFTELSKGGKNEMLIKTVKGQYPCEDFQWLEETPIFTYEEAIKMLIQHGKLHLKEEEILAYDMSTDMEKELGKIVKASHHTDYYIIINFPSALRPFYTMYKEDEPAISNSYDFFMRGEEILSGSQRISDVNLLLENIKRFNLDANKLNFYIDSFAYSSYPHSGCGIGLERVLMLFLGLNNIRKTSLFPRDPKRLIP

HsAspRS (1-501) [2] = target: T2, HsAspRS (1-501) (Homo sapiens, UniProt P14868); assay: differential scanning fluorimetry; type: binding; settings: 2 or 5 µM synthetic Asp-DACM, pH 8, 37 °C, 3 h
T2 construct: gene DARS1; full-length 1-501, codon-optimised, expressed in E. coli BL21(DE3), His-tag removed with TEV protease, homodimer
T2 sequence (P14868 1-501): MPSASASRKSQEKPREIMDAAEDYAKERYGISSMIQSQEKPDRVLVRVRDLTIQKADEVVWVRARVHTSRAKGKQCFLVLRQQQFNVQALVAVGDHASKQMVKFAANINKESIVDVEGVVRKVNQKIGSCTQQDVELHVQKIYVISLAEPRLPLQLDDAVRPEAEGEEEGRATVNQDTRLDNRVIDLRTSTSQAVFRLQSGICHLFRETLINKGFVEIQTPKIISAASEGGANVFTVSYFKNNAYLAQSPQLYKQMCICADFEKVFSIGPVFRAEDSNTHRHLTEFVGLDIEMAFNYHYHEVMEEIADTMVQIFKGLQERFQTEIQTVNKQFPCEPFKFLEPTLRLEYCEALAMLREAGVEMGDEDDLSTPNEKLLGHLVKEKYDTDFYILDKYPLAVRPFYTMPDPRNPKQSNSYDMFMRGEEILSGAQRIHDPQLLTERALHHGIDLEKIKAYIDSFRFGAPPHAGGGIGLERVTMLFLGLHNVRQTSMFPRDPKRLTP

[3] = target: T3, native length PfAspRS (49-626) (Plasmodium falciparum, UniProt Q8I2B1); assay: differential scanning fluorimetry; type: binding; settings: 2 or 5 µM synthetic Asp-DACM, pH 8, 37 °C, 3 h
T3 construct: gene PF3D7_0102900; residues 49-626, cytoplasmic, codon-optimised, expressed in E. coli BL21(DE3), N-terminal His-tag removed with TEV protease, homodimer; observed mass 67831 Da
T3 sequence (Q8I2B1 49-626): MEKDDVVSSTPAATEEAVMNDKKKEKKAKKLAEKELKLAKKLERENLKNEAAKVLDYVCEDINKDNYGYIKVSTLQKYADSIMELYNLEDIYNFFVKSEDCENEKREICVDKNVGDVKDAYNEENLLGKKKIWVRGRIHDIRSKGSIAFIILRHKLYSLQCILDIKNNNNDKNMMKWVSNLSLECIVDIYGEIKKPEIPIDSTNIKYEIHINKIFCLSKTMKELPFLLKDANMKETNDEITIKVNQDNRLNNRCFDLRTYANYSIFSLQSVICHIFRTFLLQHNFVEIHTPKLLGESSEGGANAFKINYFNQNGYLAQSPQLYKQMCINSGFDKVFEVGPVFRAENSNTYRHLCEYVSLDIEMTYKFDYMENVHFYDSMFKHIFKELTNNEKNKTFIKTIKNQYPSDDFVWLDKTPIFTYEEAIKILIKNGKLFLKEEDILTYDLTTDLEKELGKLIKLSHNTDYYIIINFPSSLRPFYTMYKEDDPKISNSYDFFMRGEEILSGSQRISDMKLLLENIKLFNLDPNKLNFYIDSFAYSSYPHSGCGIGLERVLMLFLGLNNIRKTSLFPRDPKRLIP

[4] = target: T4, native length PvAspRS (51-631) (Plasmodium vivax, UniProt A5K9Y2); assay: differential scanning fluorimetry; type: binding; settings: 2 or 5 µM synthetic Asp-DACM, pH 8, 37 °C, 3 h
T4 construct: gene PVX_081610; residues 51-631, codon-optimised, expressed in E. coli BL21(DE3), N-terminal His-tag removed with TEV protease, homodimer
T4 sequence (A5K9Y2 51-631): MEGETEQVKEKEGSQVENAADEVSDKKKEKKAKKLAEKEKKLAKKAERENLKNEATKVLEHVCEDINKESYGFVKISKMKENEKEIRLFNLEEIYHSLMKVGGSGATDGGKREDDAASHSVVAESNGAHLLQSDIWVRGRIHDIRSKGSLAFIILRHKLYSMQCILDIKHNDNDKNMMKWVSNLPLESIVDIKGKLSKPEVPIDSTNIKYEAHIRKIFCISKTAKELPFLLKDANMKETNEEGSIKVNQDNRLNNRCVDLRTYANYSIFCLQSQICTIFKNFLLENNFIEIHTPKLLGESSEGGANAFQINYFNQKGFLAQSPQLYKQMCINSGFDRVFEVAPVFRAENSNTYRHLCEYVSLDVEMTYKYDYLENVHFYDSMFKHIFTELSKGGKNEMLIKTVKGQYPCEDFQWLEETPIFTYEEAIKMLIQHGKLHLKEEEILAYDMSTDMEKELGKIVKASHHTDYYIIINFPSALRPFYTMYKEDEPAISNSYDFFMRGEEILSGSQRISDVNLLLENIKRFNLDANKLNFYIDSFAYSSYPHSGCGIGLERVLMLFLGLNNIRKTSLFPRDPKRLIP

[5] = target: native length PfAspRS (49-626), Plasmodium falciparum cytoplasmic aspartyl tRNA synthetase (P. falciparum); assay: SEC; gel filtration after removal of the His-tags; 25 mM or 50 mM Tris-HCl pH 8.0, 150 mM NaCl, 0.5 or 1 mM TCEP
[6] = target: native length PfAspRS (49-626), Plasmodium falciparum cytoplasmic aspartyl tRNA synthetase (P. falciparum); assay: AUC; sedimentation velocity, c(s) model; PfAspRS at 1, 0.6 and 0.2 mg/mL in 50 mM Tris pH 8.0, 150 mM NaCl, 1 mM TCEP; 200,000 g, 20°C, absorbance at 290 nm
[7] = target: T4, native length PvAspRS (51-631); assay: differential scanning fluorimetry after […] h incubation with substrates; type: binding; settings: read-out: dTm
[8] = target: T3, native length PfAspRS (49-626); assay: Kinase-Glo ATP consumption assay; type: biochemical; settings: 10 µM ATP, 200 µM L-Asp, 80 µM E. coli tRNA, 5 mM MgCl2, pyrophosphatase, pH 8, 37 °C
[9] = target: T1, truncated PvAspRS (96-631); assay: Kinase-Glo ATP consumption assay; type: biochemical; settings: 10 µM ATP, 200 µM L-Asp, 80 µM E. coli tRNA, 5 mM MgCl2, pyrophosphatase, pH 8, 37 °C
HsAspRS (1-501) [10] = target: T2, HsAspRS (1-501); assay: Kinase-Glo ATP consumption assay; type: biochemical; settings: 10 µM ATP, 200 µM L-Asp, 160 µM E. coli tRNA, 5 mM MgCl2, pyrophosphatase, pH 8, 37 °C
[11] = target: T4, native length PvAspRS (51-631); assay: Kinase-Glo ATP consumption assay; type: biochemical; settings: 10 µM ATP, 200 µM L-Asp, 80 µM E. coli tRNA, 5 mM MgCl2, pyrophosphatase, pH 8, 37 °C
[12] = target: T1, truncated PvAspRS (96-631); assay: X-ray crystal structure, […] Å; type: binding; settings: active site, both chains; crystallised with ATP and L-Asp
[13] = target: native length PvAspRS (51-631), Plasmodium vivax aspartyl tRNA synthetase (P. vivax); assay: SEC; gel filtration after removal of the His-tags; 25 mM or 50 mM Tris-HCl pH 8.0, 150 mM NaCl, 0.5 or 1 mM TCEP
[14] = target: T1, truncated PvAspRS (96-631); assay: X-ray crystal structure, […] Å; type: binding; settings: active site, both chains; Mg2+ in chain B
[15] = target: T3, native length PfAspRS (49-626); assay: differential scanning fluorimetry after […] h incubation with substrates; type: binding; settings: AMS (10 or 50 µM) with 10 µM ATP, 20 µM L-Asp, 80 µM E. coli tRNA, 5 mM MgCl2, pH 8, 37 °C; reaction hijacking, covalent Asp-AMS adduct made by the enzyme; value is the Tm, not the shift
[16] = target: T4, native length PvAspRS (51-631); assay: as above; type: binding; settings: AMS (10 or 50 µM) with 10 µM ATP, 20 µM L-Asp, 80 µM E. coli tRNA, 5 mM MgCl2, pH 8, 37 °C; reaction hijacking, covalent Asp-AMS adduct made by the enzyme; value is the Tm, not the shift
[17] = target: T5, full-length HsAspRS (1-501), human aspartyl tRNA synthetase (human), P14868; assay: SEC; gel filtration after removal of the His-tags; 25 mM or 50 mM Tris-HCl pH 8.0, 150 mM NaCl, 0.5 or 1 mM TCEP; settings: remark: other sources report otherwise
T5 chain: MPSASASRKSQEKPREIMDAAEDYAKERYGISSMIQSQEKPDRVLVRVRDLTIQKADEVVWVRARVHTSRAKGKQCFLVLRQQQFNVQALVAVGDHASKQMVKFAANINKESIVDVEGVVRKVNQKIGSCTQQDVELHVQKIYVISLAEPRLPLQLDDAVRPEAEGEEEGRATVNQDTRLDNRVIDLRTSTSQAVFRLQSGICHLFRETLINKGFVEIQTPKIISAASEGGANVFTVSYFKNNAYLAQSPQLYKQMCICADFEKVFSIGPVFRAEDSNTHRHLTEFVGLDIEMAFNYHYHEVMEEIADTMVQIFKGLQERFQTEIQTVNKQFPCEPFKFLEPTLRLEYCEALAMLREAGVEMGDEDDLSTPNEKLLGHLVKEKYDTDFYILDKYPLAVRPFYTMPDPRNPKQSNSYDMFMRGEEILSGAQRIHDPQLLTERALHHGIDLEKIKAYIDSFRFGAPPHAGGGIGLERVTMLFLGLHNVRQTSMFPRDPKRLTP

Molecule: Nc1nc(Cl)nc2c1ncn2[C@@H]1O[C@H](COS(=O)(=O)NC(=O)[C@@H](N)CC(=O)O)[C@@H](O)[C@H]1O [Asp-DACM, 2-chloro-5′-O-[N-(L-aspartyl)-sulfamoyl] adenosine]
X-ray crystal structure, 2.4 Å [1]: We solved the structure of PvAspRS with bound synthetic Asp-DACM
dTm (HsAspRS (1-501) [2]): synthetic Asp-DACM increased the Tm values of PfAspRS, PvAspRS and HsAspRS
dTm [3]: synthetic Asp-DACM increased the Tm values of PfAspRS, PvAspRS and HsAspRS
dTm [4]: synthetic Asp-DACM increased the Tm values of PfAspRS, PvAspRS and HsAspRS

stoichiometry N [5]: 2
stoichiometry N [6]: 2
Molecule: native length PfAspRS (49-626), Plasmodium falciparum cytoplasmic aspartyl tRNA synthetase (enzyme)

Molecule: Nc1nc(Cl)nc2c1ncn2[C@@H]1O[C@H](COS(N)(=O)=O)[C@@H](O)[C@H]1O [DACM, 5′-O-sulfamoyl-2-chloroadenosine]
ΔTm at 10 µM [7]: 19 °C

Molecule: Nc1ncnc2c1ncn2[C@@H]1O[C@H](COP(=O)(O)OP(=O)(O)OP(=O)(O)O)[C@@H](O)[C@H]1O [ATP]
Kinase-Glo ATP consumption assay [8]: Addition of EctRNA substantively increased the level of ATP consumption
Kinase-Glo ATP consumption assay [9]: marked increase in ATP consumption in the presence of EctRNA
Kinase-Glo ATP consumption assay (HsAspRS (1-501) [10]): Addition of EctRNA substantively increased the level of ATP consumption
Kinase-Glo ATP consumption assay [11]: Addition of EctRNA substantively increased the level of ATP consumption

Molecule: Nc1ncnc2c1ncn2[C@@H]1O[C@H](COP(=O)(O)OC(=O)[C@@H](N)CC(=O)O)[C@@H](O)[C@H]1O [Asp-AMP]
X-ray crystal structure, 2.1 Å [12]: We also solved the structure of PvAspRS with the natural intermediate, Asp-AMP

stoichiometry N [13]: 2
Molecule: native length PvAspRS (51-631), Plasmodium vivax aspartyl tRNA synthetase (enzyme)

Molecule: Nc1ncnc2c1ncn2[C@@H]1O[C@H](COS(=O)(=O)NC(=O)[C@@H](N)CC(=O)O)[C@@H](O)[C@H]1O [Asp-AMS, 5′-O-(N-L-aspartate)-sulfamoyl-adenosine]
X-ray crystal structure, 1.8 Å [14]: We also solved the structure of PvAspRS with bound synthetic Asp-AMS

Molecule: Nc1ncnc2c1ncn2[C@@H]1O[C@H](COS(N)(=O)=O)[C@@H](O)[C@H]1O [AMS]
Tm [15]: 57.0 °C
Tm [16]: 59.5 °C

stoichiometry N [17]: 2
B1: full-length HsAspRS (1-501), human aspartyl tRNA synthetase, P14868-1 1-501 (enzyme)
chain: MPSASASRKSQEKPREIMDAAEDYAKERYGISSMIQSQEKPDRVLVRVRDLTIQKADEVVWVRARVHTSRAKGKQCFLVLRQQQFNVQALVAVGDHASKQMVKFAANINKESIVDVEGVVRKVNQKIGSCTQQDVELHVQKIYVISLAEPRLPLQLDDAVRPEAEGEEEGRATVNQDTRLDNRVIDLRTSTSQAVFRLQSGICHLFRETLINKGFVEIQTPKIISAASEGGANVFTVSYFKNNAYLAQSPQLYKQMCICADFEKVFSIGPVFRAEDSNTHRHLTEFVGLDIEMAFNYHYHEVMEEIADTMVQIFKGLQERFQTEIQTVNKQFPCEPFKFLEPTLRLEYCEALAMLREAGVEMGDEDDLSTPNEKLLGHLVKEKYDTDFYILDKYPLAVRPFYTMPDPRNPKQSNSYDMFMRGEEILSGAQRIHDPQLLTERALHHGIDLEKIKAYIDSFRFGAPPHAGGGIGLERVTMLFLGLHNVRQTSMFPRDPKRLTP
